Results from patent US9302999B2, “Substituted triazoles as herbicides” (E. I. DU PONT DE NEMOURS AND COMPANY, priority 2012, dated 2016).

How the values were obtained:
Type in all cases: in vivo
[1] = system: blackgrass (Alopecurus myosuroides); assay: Test C pre-/postemergence: blackgrass
Procedure, shortened: (§1)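 Preemergence on seeds in loam/sand, postemergence on 2–18 cm (1–4-leaf) plants in peat-based medium; compounds in non-phytotoxic solvent with surfactant. After 13–15 days in greenhouse, visual rating versus controls, 0 (no effect) to 100 (complete control).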

[2] = system: pigweed (Amaranthus retroflexus); assay: Test C pre-/postemergence: pigweed
Procedure, shortened: as §1

[3] = system: wheat (Triticum aestivum); assay: Test A pre-/postemergence: wheat
Procedure, shortened: (§2)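 Pre: directed soil spray after planting in loam + sand. Post: same formulation (non-phytotoxic solvent + surfactant) on 1–2-leaf plants, 2–10 cm. Greenhouse ~10 d; visual injury 0–100 vs untreated.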

[4] = system: ryegrass, Italian (Italian ryegrass, Lolium multiflorum); assay: Test C pre-/postemergence: ryegrass, Italian
Procedure, shortened: as §1

[5] = system: morningglory (Ipomoea spp.); assay: Test A pre-/postemergence: morningglory
Procedure, shortened: as §2

[6] = system: barnyardgrass (Echinochloa crus-galli); assay: Test A pre-/postemergence: barnyardgrass
Procedure, shortened: as §2

wild oat (Avena fatua) = assay: Test C pre-/postemergence: wild oat
Procedure, shortened: as §1

kochia (Kochia scoparia) = assay: Test C pre-/postemergence: kochia
Procedure, shortened: as §1

[7] = system: foxtail, giant (giant foxtail, Setaria faberii); assay: Test A pre-/postemergence: foxtail, giant
Procedure, shortened: as §2

[8] = system: large crabgrass (Digitaria sanguinalis); assay: Test C pre-/postemergence: large crabgrass
Procedure, shortened: as §1

[9] = system: lambsquarters (Chenopodium album); assay: Test C pre-/postemergence: lambsquarters
Procedure, shortened: as §1

[10] = system: velvetleaf (Abutilon theophrasti); assay: Test A pre-/postemergence: velvetleaf
Procedure, shortened: as §2

[11] = Postemergence, 31 g ai/ha, scale 0 to 100 (0 no effect, 100 complete control)
[12] = Postemergence, 62 g ai/ha, scale 0 to 100 (0 no effect, 100 complete control)
[13] = Postemergence, 125 g ai/ha, scale 0 to 100, 0 no effect, 100 complete control
[14] = Postemergence, 250 g ai/ha, scale 0 to 100
[15] = Preemergence, 31 g ai/ha, scale 0 (no effect) to 100 (complete control)
[16] = Preemergence, 62 g ai/ha, scale of 0 to 100, 0 is no effect, 100 is complete control
[17] = Preemergence, 125 g ai/ha, scale 0 to 100, 0 no effect, 100 complete control
[18] = Preemergence, 250 g ai/ha, scale 0 to 100, 0 no effect, 100 complete control
[19] = Postemergence, 125 g ai/ha, 0 to 100 scale, 0 is no effect, 100 is complete control
[20] = Postemergence, 500 g ai/ha, 0 to 100 scale, 0 is no effect, 100 is complete control
[21] = Preemergence, 125 g ai/ha, 0 to 100 scale where 0 is no effect and 100 is complete control
[22] = Preemergence, 500 g ai/ha, 0 to 100 scale (0 no effect, 100 complete control)
[23] = Postemergence, 250 g ai/ha, scale 0 to 100 (0 no effect, 100 complete control)

CCc1nn(-c2ccc(F)cc2)nc1Oc1ccnc(C(F)(F)F)c1 [Compound 166]
Plant response rating, Blackgrass [1, 11]: 10
Plant response rating, Blackgrass [1, 12]: 20
Plant response rating, Blackgrass [1, 13]: 40
Plant response rating, Blackgrass [1, 14]: 60
Plant response rating, Blackgrass [1, 15]: 15
Plant response rating, Blackgrass [1, 16]: 90
Plant response rating, Blackgrass [1, 17]: 90
Plant response rating, Blackgrass [1, 18]: 95
Plant response rating, Pigweed [2, 11]: 35
Plant response rating, Pigweed [2, 12]: 85
Plant response rating, Pigweed [2, 13]: 95
Plant response rating, Pigweed [2, 14]: 98
Plant response rating, Pigweed [2, 15]: 100
Plant response rating, Pigweed [2, 16]: 100
Plant response rating, Pigweed [2, 17]: 100
Plant response rating, Pigweed [2, 18]: 100
Plant response rating, Wheat [3, 19]: 30
Wheat plant response rating [3, 20]: 40
Plant response rating, Wheat [3, 21]: 10
Plant response rating, Wheat [3, 22]: 50
Plant response rating, Ryegrass, Italian [4, 11]: 5
Plant response rating, Ryegrass, Italian [4, 12]: 5
Plant response rating, Ryegrass, Italian [4, 13]: 20
Plant response rating, Ryegrass, Italian [4, 14]: 25
Plant response rating, Ryegrass, Italian [4, 15]: 5
Plant response rating, Ryegrass, Italian [4, 16]: 40
Plant response rating, Ryegrass, Italian [4, 17]: 50
Plant response rating, Ryegrass, Italian [4, 18]: 100
Plant response rating, Morningglory [5, 19]: 90
Morningglory plant response rating [5, 20]: 100
Plant response rating, Barnyardgrass [6, 19]: 70
Barnyardgrass plant response rating [6, 20]: 90
Plant response rating, Barnyardgrass [6, 21]: 90
Plant response rating, Barnyardgrass [6, 22]: 100
Plant response rating, Oat, Wild (wild oat (Avena fatua); [11]): 15
Plant response rating, Oat, Wild (wild oat (Avena fatua); [12]): 20
Plant response rating, Oat, Wild (wild oat (Avena fatua); [14]): 30
Plant response rating, Kochia (kochia (Kochia scoparia); [11]): 90
Plant response rating, Kochia (kochia (Kochia scoparia); [12]): 90
Plant response rating, Kochia (kochia (Kochia scoparia); [13]): 90
Plant response rating, Kochia (kochia (Kochia scoparia); [14]): 90
Plant response rating, Foxtail, Giant [7, 19]: 90
Foxtail, Giant plant response rating [7, 20]: 90
Plant response rating, Foxtail, Giant [7, 21]: 100
Plant response rating, Foxtail, Giant [7, 22]: 100
Plant response rating, Crabgrass, Large [8, 11]: 15
Plant response rating, Crabgrass, Large [8, 12]: 15
Plant response rating, Crabgrass, Large [8, 13]: 20
Plant response rating, Crabgrass, Large [8, 14]: 40
Plant response rating, Crabgrass, Large [8, 15]: 85
Plant response rating, Crabgrass, Large [8, 16]: 98
Plant response rating, Crabgrass, Large [8, 17]: 100
Plant response rating, Crabgrass, Large [8, 18]: 100
Plant response rating, Lambsquarters [9, 11]: 60
Plant response rating, Lambsquarters [9, 12]: 95
Plant response rating, Lambsquarters [9, 13]: 95
Plant response rating, Lambsquarters [9, 14]: 98
Plant response rating, Velvetleaf [10, 19]: 80
Velvetleaf plant response rating [10, 20]: 100
Plant response rating, Velvetleaf [10, 21]: 30
Plant response rating, Velvetleaf [10, 22]: 70

CCCc1nn(-c2ccc(C(F)(F)F)c(F)c2)nc1Oc1ccnc(C(F)(F)F)c1 [Compound 185]
Plant response rating, Blackgrass [1, 11]: 20
Plant response rating, Blackgrass [1, 12]: 40
Plant response rating, Blackgrass [1, 13]: 50
Plant response rating, Blackgrass [1, 14]: 50
Plant response rating, Blackgrass [1, 15]: 90
Plant response rating, Blackgrass [1, 16]: 95
Plant response rating, Blackgrass [1, 17]: 95
Plant response rating, Blackgrass [1, 18]: 98
Plant response rating, Pigweed [2, 11]: 98
Plant response rating, Pigweed [2, 12]: 98
Plant response rating, Pigweed [2, 13]: 100
Plant response rating, Pigweed [2, 23]: 100
Plant response rating, Pigweed [2, 15]: 100
Plant response rating, Pigweed [2, 16]: 100
Plant response rating, Pigweed [2, 17]: 100
Plant response rating, Pigweed [2, 18]: 100
Plant response rating, Wheat [3, 19]: 20
Wheat plant response rating [3, 20]: 40
Plant response rating, Wheat [3, 21]: 30
Plant response rating, Wheat [3, 22]: 50
Plant response rating, Ryegrass, Italian [4, 11]: 10
Plant response rating, Ryegrass, Italian [4, 12]: 10
Plant response rating, Ryegrass, Italian [4, 13]: 25
Plant response rating, Ryegrass, Italian [4, 23]: 35
Plant response rating, Ryegrass, Italian [4, 15]: 90
Plant response rating, Ryegrass, Italian [4, 16]: 100
Plant response rating, Ryegrass, Italian [4, 17]: 100
Plant response rating, Ryegrass, Italian [4, 18]: 100
Plant response rating, Morningglory [5, 19]: 100
Morningglory plant response rating [5, 20]: 100
Plant response rating, Morningglory [5, 21]: 60
Plant response rating, Morningglory [5, 22]: 100
Plant response rating, Barnyardgrass [6, 19]: 70
Barnyardgrass plant response rating [6, 20]: 90
Plant response rating, Barnyardgrass [6, 21]: 100
Plant response rating, Barnyardgrass [6, 22]: 100
Plant response rating, Oat, Wild (wild oat (Avena fatua); [11]): 25
Plant response rating, Oat, Wild (wild oat (Avena fatua); [12]): 30
Plant response rating, Oat, Wild (wild oat (Avena fatua); [13]): 55
Plant response rating, Oat, Wild (wild oat (Avena fatua); [23]): 60
Plant response rating, Kochia (kochia (Kochia scoparia); [11]): 90
Plant response rating, Kochia (kochia (Kochia scoparia); [12]): 90
Plant response rating, Kochia (kochia (Kochia scoparia); [13]): 90
Plant response rating, Kochia (kochia (Kochia scoparia); [23]): 90
Plant response rating, Foxtail, Giant [7, 19]: 90
Foxtail, Giant plant response rating [7, 20]: 90
Plant response rating, Foxtail, Giant [7, 21]: 100
Plant response rating, Foxtail, Giant [7, 22]: 100
Plant response rating, Crabgrass, Large [8, 11]: 25
Plant response rating, Crabgrass, Large [8, 12]: 40
Plant response rating, Crabgrass, Large [8, 13]: 60
Plant response rating, Crabgrass, Large [8, 14]: 80
Plant response rating, Crabgrass, Large [8, 15]: 100
Plant response rating, Crabgrass, Large [8, 16]: 100
Plant response rating, Crabgrass, Large [8, 17]: 100
Plant response rating, Crabgrass, Large [8, 18]: 100
Plant response rating, Lambsquarters [9, 11]: 80
Plant response rating, Lambsquarters [9, 12]: 80
Plant response rating, Lambsquarters [9, 13]: 85
Plant response rating, Lambsquarters [9, 23]: 95
Plant response rating, Lambsquarters [9, 15]: 100
Plant response rating, Lambsquarters [9, 16]: 100
Plant response rating, Lambsquarters [9, 17]: 100
Plant response rating, Lambsquarters [9, 18]: 100
Plant response rating, Velvetleaf [10, 19]: 100
Velvetleaf plant response rating [10, 20]: 100
Plant response rating, Velvetleaf [10, 21]: 90
Plant response rating, Velvetleaf [10, 22]: 100

CCOc1nn(-c2ccc(F)cc2)nc1Cc1ccnc(C(F)F)c1 [Compound 195]
Plant response rating, Blackgrass [1, 11]: 45
Plant response rating, Blackgrass [1, 12]: 70
Plant response rating, Blackgrass [1, 13]: 80
Plant response rating, Blackgrass [1, 14]: 80
Plant response rating, Blackgrass [1, 15]: 90
Plant response rating, Blackgrass [1, 16]: 90
Plant response rating, Blackgrass [1, 17]: 90
Plant response rating, Blackgrass [1, 18]: 90
Plant response rating, Pigweed [2, 11]: 95
Plant response rating, Pigweed [2, 12]: 95
Plant response rating, Pigweed [2, 13]: 98
Plant response rating, Pigweed [2, 23]: 98
Plant response rating, Pigweed [2, 15]: 98
Plant response rating, Pigweed [2, 16]: 98
Plant response rating, Pigweed [2, 17]: 100
Plant response rating, Pigweed [2, 18]: 100
Plant response rating, Wheat [3, 19]: 30
Wheat plant response rating [3, 20]: 30
Plant response rating, Wheat [3, 21]: 20
Plant response rating, Wheat [3, 22]: 50
Plant response rating, Ryegrass, Italian [4, 11]: 25
Plant response rating, Ryegrass, Italian [4, 12]: 55
Plant response rating, Ryegrass, Italian [4, 13]: 60
Plant response rating, Ryegrass, Italian [4, 23]: 60
Plant response rating, Ryegrass, Italian [4, 15]: 50
Plant response rating, Ryegrass, Italian [4, 16]: 80
Plant response rating, Ryegrass, Italian [4, 17]: 90
Plant response rating, Ryegrass, Italian [4, 18]: 90
Plant response rating, Morningglory [5, 19]: 80
Morningglory plant response rating [5, 20]: 100
Plant response rating, Morningglory [5, 21]: 50
Plant response rating, Morningglory [5, 22]: 60
Plant response rating, Barnyardgrass [6, 19]: 90
Barnyardgrass plant response rating [6, 20]: 90
Plant response rating, Barnyardgrass [6, 21]: 90
Plant response rating, Barnyardgrass [6, 22]: 100
Plant response rating, Oat, Wild (wild oat (Avena fatua); [11]): 60
Plant response rating, Oat, Wild (wild oat (Avena fatua); [12]): 75
Plant response rating, Oat, Wild (wild oat (Avena fatua); [13]): 80
Plant response rating, Oat, Wild (wild oat (Avena fatua); [23]): 85
Plant response rating, Oat, Wild (wild oat (Avena fatua); [15]): 80
Plant response rating, Oat, Wild (wild oat (Avena fatua); [16]): 90
Plant response rating, Oat, Wild (wild oat (Avena fatua); [18]): 90
Plant response rating, Kochia (kochia (Kochia scoparia); [11]): 75
Plant response rating, Kochia (kochia (Kochia scoparia); [12]): 85
Plant response rating, Kochia (kochia (Kochia scoparia); [13]): 90
Plant response rating, Kochia (kochia (Kochia scoparia); [23]): 95
Plant response rating, Kochia (kochia (Kochia scoparia); [15]): 60
Plant response rating, Kochia (kochia (Kochia scoparia); [16]): 75
Plant response rating, Kochia (kochia (Kochia scoparia); [18]): 95
Plant response rating, Foxtail, Giant [7, 19]: 90
Foxtail, Giant plant response rating [7, 20]: 90
Plant response rating, Foxtail, Giant [7, 21]: 100
Plant response rating, Foxtail, Giant [7, 22]: 100
Plant response rating, Crabgrass, Large [8, 11]: 55
Plant response rating, Crabgrass, Large [8, 12]: 60
Plant response rating, Crabgrass, Large [8, 13]: 90
Plant response rating, Crabgrass, Large [8, 14]: 95
Plant response rating, Crabgrass, Large [8, 15]: 98
Plant response rating, Crabgrass, Large [8, 16]: 100
Plant response rating, Crabgrass, Large [8, 17]: 100
Plant response rating, Crabgrass, Large [8, 18]: 100
Plant response rating, Lambsquarters [9, 11]: 95
Plant response rating, Lambsquarters [9, 12]: 95
Plant response rating, Lambsquarters [9, 13]: 95
Plant response rating, Lambsquarters [9, 23]: 95
Plant response rating, Lambsquarters [9, 15]: 55
Plant response rating, Lambsquarters [9, 16]: 80
Plant response rating, Lambsquarters [9, 17]: 90
Plant response rating, Lambsquarters [9, 18]: 95
Plant response rating, Velvetleaf [10, 19]: 90
Velvetleaf plant response rating [10, 20]: 100
Plant response rating, Velvetleaf [10, 21]: 70
Plant response rating, Velvetleaf [10, 22]: 80
